From US20260062443A1 (ALEXION PHARMACEUTICALS, INC., priority 2022, published 2026)
Like-named read-outs stand apart in the source and are kept apart here.

Target: T1, Human complement C1s enzyme (Homo sapiens, UniProt P09871)
T1 sequence (P09871 438-688 limits assumed): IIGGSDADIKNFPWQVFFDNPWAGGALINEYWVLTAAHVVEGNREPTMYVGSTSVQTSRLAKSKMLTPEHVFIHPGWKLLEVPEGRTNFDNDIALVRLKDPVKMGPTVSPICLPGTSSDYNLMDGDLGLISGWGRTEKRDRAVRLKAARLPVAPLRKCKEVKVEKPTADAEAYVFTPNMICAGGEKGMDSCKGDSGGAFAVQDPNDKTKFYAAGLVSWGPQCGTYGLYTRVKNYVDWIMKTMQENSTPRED
T1 sequence (P09871 16-437 partner limits assumed): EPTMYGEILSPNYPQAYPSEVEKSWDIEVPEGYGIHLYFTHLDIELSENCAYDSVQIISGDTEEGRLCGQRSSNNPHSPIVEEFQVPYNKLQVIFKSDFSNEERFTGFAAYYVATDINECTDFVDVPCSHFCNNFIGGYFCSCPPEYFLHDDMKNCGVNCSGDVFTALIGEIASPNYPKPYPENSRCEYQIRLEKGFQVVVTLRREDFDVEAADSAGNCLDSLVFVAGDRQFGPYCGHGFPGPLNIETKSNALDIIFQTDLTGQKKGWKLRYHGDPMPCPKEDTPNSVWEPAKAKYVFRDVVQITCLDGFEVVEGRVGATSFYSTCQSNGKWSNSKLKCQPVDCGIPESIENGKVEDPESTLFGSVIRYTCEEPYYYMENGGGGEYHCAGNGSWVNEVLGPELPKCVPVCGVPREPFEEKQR
Assay: Human C1s enzyme assay
Type: biochemical
How it was run: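 IC50 from nonlinear regression of reaction rates versus compound concentration, with rates taken from A405 recorded at 30 s intervals over 30 min after adding 100 μM Z-L-Lys-SBzl plus 100 μM DTNB. Enzyme was human C1s purified from serum, 1.16 nM, given 5 min compound preincubation at room temperature, pH 7.5 Tris/1 M NaCl.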

[1] = human complement C1s enzyme 1.16 nM, substrate Z-L-Lys-SBzl 100 μM, 5 min preincubation, read-out: IC50 (Stars), C1s Inhibiting Activity

Compound | IC50 [1] [µM] | IC50 [µM]
C[C@@]12C[C@@H]1N(C(=O)CN1Cc3ccc(Oc4ccccc4)cc3C1=O)[C@H](C(=O)NCc1cc3cnccc3[nH]1)C2 [Compound 156, (1S,3S,5S)-N-((1H-pyrrolo[3,2-c]pyridin-2-yl)methyl)-5-methyl-2-(2-(1-oxo-6-phenoxyisoindolin-2-yl)acetyl)-2-azabicyclo[3.1.0]hexane-3-carboxamide] | 0.1 to 1 | 
O=C(NCC(=O)N1CC2(C[C@H]1C(=O)NCc1cc3cnccc3[nH]1)OCCO2)c1cccc(Oc2ccc(F)cc2)c1 [Compound 157, (S)-N-((1H-pyrrolo[3,2-c]pyridin-2-yl)methyl)-7-((3-(4-fluorophenoxy)benzoyl)glycyl)-1,4-dioxa-7-azaspiro[4.4]nonane-8-carboxamide] | < 0.1 | 
O=C(NCC(=O)N1CC[C@@H](O)[C@H]1C(=O)NCc1cc2cnccc2[nH]1)c1ccc2c(c1)Oc1ccccc1S2 [Compound 158, (2S,3R)-N-((1H-pyrrolo[3,2-c]pyridin-2-yl)methyl)-3-hydroxy-1-((phenoxathiine-3-carbonyl)glycyl)pyrrolidine-2-carboxamide] | < 0.1 | 
C[C@@]12C[C@@H]1N(C(=O)CNC(=O)c1cccc(-c3ccccc3)n1)[C@H](C(=O)NCc1cc3cnccc3[nH]1)C2 [Compound 159, (1S,3S,5S)-N-((1H-pyrrolo[3,2-c]pyridin-2-yl)methyl)-5-methyl-2-((6-phenylpicolinoyl)glycyl)-2-azabicyclo[3.1.0]hexane-3-carboxamide] | > 1 | 
CO[C@@H]1C[C@@H](C(=O)N[C@H](C)c2cc3cnccc3[nH]2)N(C(=O)CNC(=O)c2ccc3c(c2)Oc2ccccc2S3)C1 [Compound 160, (2S,4R)-N-((R)-1-(1H-pyrrolo[3,2-c]pyridin-2-yl)ethyl)-4-methoxy-1-((phenoxathiine-3-carbonyl)glycyl)pyrrolidine-2-carboxamide] | < 0.1 | 
C[C@@H](NC(=O)[C@@H]1C[C@]2(CO)C[C@@H]2N1C(=O)CNC(=O)c1ccc2c(c1)Oc1ccccc1S2)c1cc2cnccc2[nH]1 [Compound 161, (1S,3S,5R)-N-((R)-1-(1H-pyrrolo[3,2-c]pyridin-2-yl)ethyl)-5-(hydroxymethyl)-2-((phenoxathiine-3-carbonyl)glycyl)-2-azabicyclo[3.1.0]hexane-3-carboxamide] | < 0.1 | 
C[C@@H](NC(=O)[C@@H]1C[C@](F)(CF)CN1C(=O)CNC(=O)c1ccc(-c2ccc(F)cc2F)cc1)c1cc2cnccc2[nH]1 [Compound 162, (2S,4R)-N-((R)-1-(1H-pyrrolo[3,2-c]pyridin-2-yl)ethyl)-1-((2′,4′-difluoro-[1,1′-biphenyl]-4-carbonyl)glycyl)-4-fluoro-4-(fluoromethyl)pyrrolidine-2-carboxamide] | 0.1 to 1 | 
C[C@@H](NC(=O)[C@@H]1C[C@]2(C)C[C@@H]2N1C(=O)CNC(=O)c1ccc(Oc2ccccc2)cc1)c1cc(B(O)O)cs1 [Compound 163, (5-((R)-1-((1S,3S,5S)-5-methyl-2-((4-phenoxybenzoyl)glycyl)-2-azabicyclo[3.1.0]hexane-3-carboxamido)ethyl)thiophen-3-yl)boronic acid] | > 1 | 
C[C@@H](NC(=O)[C@@H]1C[C@](F)(CF)CN1C(=O)CNC(=O)c1ccc2c(c1)Oc1ccccc1S2)c1cc2cnccc2[nH]1 [Compound 164, (2S,4R)-N-((R)-1-(1H-pyrrolo[3,2-c]pyridin-2-yl)ethyl)-4-fluoro-4-(fluoromethyl)-1-((phenoxathiine-3-carbonyl)glycyl)pyrrolidine-2-carboxamide] | < 0.1 | 
C[C@H]1C[C@@H](C(=O)N[C@H](C)c2cc3cnccc3[nH]2)N(C(=O)CNC(=O)c2ccc3c(c2)Oc2ccccc2S3)C1 [Compound 165, (2S,4S)-N-((R)-1-(1H-pyrrolo[3,2-c]pyridin-2-yl)ethyl)-4-methyl-1-((phenoxathiine-3-carbonyl)glycyl)pyrrolidine-2-carboxamide] | < 0.1 | 
C[C@H]1C[C@@H](C(=O)N[C@H](C)c2cc3cnccc3[nH]2)N(C(=O)CNC(=O)c2ccc3c(c2)-c2ccccc2C3(F)F)C1 [Compound 166, (2S,4S)-N-((R)-1-(1H-pyrrolo[3,2-c]pyridin-2-yl)ethyl)-1-((9,9-difluoro-9H-fluorene-3-carbonyl)glycyl)-4-methylpyrrolidine-2-carboxamide] | < 0.1 | 
C[C@@H](NC(=O)[C@@H]1C[C@@H](OC(F)F)CN1C(=O)CNC(=O)c1ccc2c(c1)C(F)(F)c1ccccc1-2)c1cc2cnccc2[nH]1 [Compound 167, (2S,4R)-N-((R)-1-(1H-pyrrolo[3,2-c]pyridin-2-yl)ethyl)-1-((9,9-difluoro-9H-fluorene-2-carbonyl)glycyl)-4-(difluoromethoxy)pyrrolidine-2-carboxamide] | < 0.1 | 
C[C@@H](NC(=O)[C@@H]1C[Si](C)(C)CN1C(=O)CNC(=O)c1ccc2c(c1)Oc1ccccc1S2)c1cc2cnccc2[nH]1 [Compound 168, (R)-N-((R)-1-(1H-pyrrolo[3,2-c]pyridin-2-yl)ethyl)-3,3-dimethyl-1-((phenoxathiine-3-carbonyl)glycyl)-1,3-azasilolidine-5-carboxamide] |  | < 0.1
C[C@@H](NC(=O)[C@@H]1C[C@@H](c2ccccc2)CN1C(=O)CNC(=O)c1ccc2c(c1)Oc1ccccc1S2)c1cc2cnccc2[nH]1 [Compound 169, (2S,4S)-N-((R)-1-(1H-pyrrolo[3,2-c]pyridin-2-yl)ethyl)-1-((phenoxathiine-3-carbonyl)glycyl)-4-phenylpyrrolidine-2-carboxamide] | < 0.1 | 
C[C@@]12C[C@@H]1N(C(=O)CNC(=O)c1ccc3c(c1)Oc1ccccc1S3)[C@H](C(=O)NCc1cc3c(s1)CCNC3)C2 [Compound 170, (1S,3S,5S)-5-methyl-2-((phenoxathiine-3-carbonyl)glycyl)-N-((4,5,6,7-tetrahydrothieno[3,2-c]pyridin-2-yl)methyl)-2-azabicyclo[3.1.0]hexane-3-carboxamide] | < 0.1 | 
C[C@@H](NC(=O)[C@@H]1C[C@]2(C)C[C@@H]2N1C(=O)CNC(=O)c1cccc(Oc2ccccc2)c1)c1cc2cnccc2[nH]1 [Compound 171, (1S,3S,5S)-N-((R)-1-(1H-pyrrolo[3,2-c]pyridin-2-yl)ethyl)-5-methyl-2-((3-phenoxybenzoyl)glycyl)-2-azabicyclo[3.1.0]hexane-3-carboxamide] | < 0.1 | 
COC[C@@]1(F)C[C@@H](C(=O)N[C@H](C)c2cc3cnccc3[nH]2)N(C(=O)CNC(=O)c2ccc3c(c2)Oc2ccccc2S3)C1 [Compound 173, (2S,4R)-N-((R)-1-(1H-pyrrolo[3,2-c]pyridin-2-yl)ethyl)-4-fluoro-4-(methoxymethyl)-1-((phenoxathiine-3-carbonyl)glycyl)pyrrolidine-2-carboxamide] | < 0.1 | 
C[C@@H](NC(=O)[C@@H]1C[C@@H](S(=O)(=O)C2CC2)CN1C(=O)CNC(=O)c1ccc2c(c1)Oc1ccccc1S2)c1cc2cnccc2[nH]1 [Compound 174, (2S,4R)-N-((R)-1-(1H-pyrrolo[3,2-c]pyridin-2-yl)ethyl)-4-(cyclopropylsulfonyl)-1-((phenoxathiine-3-carbonyl)glycyl)pyrrolidine-2-carboxamide] | < 0.1 | 
COC[C@@]1(F)C[C@@H](C(=O)N[C@H](C)c2cc3cnccc3[nH]2)N(C(=O)CNC(=O)c2ccc(Oc3ccc(F)cc3)cc2)C1 [Compound 175, (2S,4R)-N-((R)-1-(1H-pyrrolo[3,2-c]pyridin-2-yl)ethyl)-4-fluoro-1-((4-(4-fluorophenoxy)benzoyl)glycyl)-4-(methoxymethyl)pyrrolidine-2-carboxamide] | < 0.1 | 
